This is an account of results in article PMC10099810, “Rational Design and Synthesis of D‐galactosyl Lysophospholipids as Selective Substrates and non‐ATP‐competitive Inhibitors of Phosphatidylinositol Phosphate Kinases” (Chemistry (Weinheim an Der Bergstrasse, Germany), 2022).

The target of one data set is T1, hPIKfyve (human PIKfyve) (Homo sapiens, UniProt Q9Y2I7).
T1 construct: full length human PIKfyve with an N-terminal FLAG tag
Nature of the data set: […]-ATP lipid kinase assay with TLC, diC16-PI3P substrate. It is filed as biochemical.

In data set [1] the target is T2, 5′ AMP-activated protein kinase α1 (AMPKα1) (Homo sapiens, UniProt Q13131).
T2 construct: gene PRKAA1
As to the kind of experiment: KinaseProfiler activity screen, […] inhibition at […]. It is filed as biochemical.

Data set [2] addresses T3, zPIP5Kα (zebrafish PIP5Kα) (Danio rerio, UniProt Q503I3).
T3 construct: gene pip5k1aa; zebrafish PIP5Kα with a C-terminal His-tag
Nature of the data set: […]-ATP lipid kinase assay with TLC, diC16-PI4P substrate; ATP and PI4P competition. It is filed as biochemical.

Substrate in the data set “purified protein”: CCCCCCCCCCCCCCCC(=O)NCCOP(=O)(O)OC[C@H]1OC(O)[C@H](OP(=O)(O)O)[C@@H](O)[C@H]1O
As to the kind of experiment: purified protein. The following applies: Mg2+, phosphorylated at the anomeric OH. It is filed as biochemical, Danio rerio.

As a reminder, the IC50 is the concentration that inhibits the measured activity by half. In general, inhibition refers to the percentage by which the read-out fell short of the control. A higher inhibition goes with a response far below the control. By Km is commonly meant the concentration of substrate that gives half-maximal velocity.

T2 sequence (Q13131 whole entry): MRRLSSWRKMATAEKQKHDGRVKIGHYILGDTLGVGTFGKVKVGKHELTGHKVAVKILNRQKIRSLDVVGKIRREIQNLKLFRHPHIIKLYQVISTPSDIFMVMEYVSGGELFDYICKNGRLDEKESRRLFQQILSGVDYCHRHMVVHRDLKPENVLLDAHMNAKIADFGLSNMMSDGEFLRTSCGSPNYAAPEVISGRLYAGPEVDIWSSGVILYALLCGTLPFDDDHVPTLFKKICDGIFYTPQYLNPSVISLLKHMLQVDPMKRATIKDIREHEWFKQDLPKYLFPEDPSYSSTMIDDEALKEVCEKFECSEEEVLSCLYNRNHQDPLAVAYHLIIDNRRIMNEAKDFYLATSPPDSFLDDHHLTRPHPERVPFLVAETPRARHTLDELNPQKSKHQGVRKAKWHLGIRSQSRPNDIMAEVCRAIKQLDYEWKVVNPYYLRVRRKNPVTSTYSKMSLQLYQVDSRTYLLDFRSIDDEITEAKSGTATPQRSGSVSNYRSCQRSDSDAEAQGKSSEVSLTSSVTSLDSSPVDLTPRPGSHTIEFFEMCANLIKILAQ
T2 sequence (Q9Y478 2-270 partner): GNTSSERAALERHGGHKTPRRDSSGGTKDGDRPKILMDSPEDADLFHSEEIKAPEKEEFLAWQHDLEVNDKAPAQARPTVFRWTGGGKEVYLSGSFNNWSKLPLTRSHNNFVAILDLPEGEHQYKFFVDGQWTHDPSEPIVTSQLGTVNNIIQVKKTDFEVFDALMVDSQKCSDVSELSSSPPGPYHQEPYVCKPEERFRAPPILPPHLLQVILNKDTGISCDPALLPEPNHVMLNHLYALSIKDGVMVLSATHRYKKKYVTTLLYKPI
T2 sequence (P54619 whole entry partner): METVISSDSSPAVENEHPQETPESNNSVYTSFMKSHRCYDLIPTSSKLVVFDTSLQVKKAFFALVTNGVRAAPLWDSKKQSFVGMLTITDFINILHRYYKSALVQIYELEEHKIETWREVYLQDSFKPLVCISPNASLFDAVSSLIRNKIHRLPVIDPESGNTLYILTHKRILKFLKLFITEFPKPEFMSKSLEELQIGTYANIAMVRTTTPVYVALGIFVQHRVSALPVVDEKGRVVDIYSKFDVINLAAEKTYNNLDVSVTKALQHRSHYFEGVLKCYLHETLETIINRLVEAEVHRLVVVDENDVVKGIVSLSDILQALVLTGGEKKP
T1 sequence (Q9Y2I7 2-2098): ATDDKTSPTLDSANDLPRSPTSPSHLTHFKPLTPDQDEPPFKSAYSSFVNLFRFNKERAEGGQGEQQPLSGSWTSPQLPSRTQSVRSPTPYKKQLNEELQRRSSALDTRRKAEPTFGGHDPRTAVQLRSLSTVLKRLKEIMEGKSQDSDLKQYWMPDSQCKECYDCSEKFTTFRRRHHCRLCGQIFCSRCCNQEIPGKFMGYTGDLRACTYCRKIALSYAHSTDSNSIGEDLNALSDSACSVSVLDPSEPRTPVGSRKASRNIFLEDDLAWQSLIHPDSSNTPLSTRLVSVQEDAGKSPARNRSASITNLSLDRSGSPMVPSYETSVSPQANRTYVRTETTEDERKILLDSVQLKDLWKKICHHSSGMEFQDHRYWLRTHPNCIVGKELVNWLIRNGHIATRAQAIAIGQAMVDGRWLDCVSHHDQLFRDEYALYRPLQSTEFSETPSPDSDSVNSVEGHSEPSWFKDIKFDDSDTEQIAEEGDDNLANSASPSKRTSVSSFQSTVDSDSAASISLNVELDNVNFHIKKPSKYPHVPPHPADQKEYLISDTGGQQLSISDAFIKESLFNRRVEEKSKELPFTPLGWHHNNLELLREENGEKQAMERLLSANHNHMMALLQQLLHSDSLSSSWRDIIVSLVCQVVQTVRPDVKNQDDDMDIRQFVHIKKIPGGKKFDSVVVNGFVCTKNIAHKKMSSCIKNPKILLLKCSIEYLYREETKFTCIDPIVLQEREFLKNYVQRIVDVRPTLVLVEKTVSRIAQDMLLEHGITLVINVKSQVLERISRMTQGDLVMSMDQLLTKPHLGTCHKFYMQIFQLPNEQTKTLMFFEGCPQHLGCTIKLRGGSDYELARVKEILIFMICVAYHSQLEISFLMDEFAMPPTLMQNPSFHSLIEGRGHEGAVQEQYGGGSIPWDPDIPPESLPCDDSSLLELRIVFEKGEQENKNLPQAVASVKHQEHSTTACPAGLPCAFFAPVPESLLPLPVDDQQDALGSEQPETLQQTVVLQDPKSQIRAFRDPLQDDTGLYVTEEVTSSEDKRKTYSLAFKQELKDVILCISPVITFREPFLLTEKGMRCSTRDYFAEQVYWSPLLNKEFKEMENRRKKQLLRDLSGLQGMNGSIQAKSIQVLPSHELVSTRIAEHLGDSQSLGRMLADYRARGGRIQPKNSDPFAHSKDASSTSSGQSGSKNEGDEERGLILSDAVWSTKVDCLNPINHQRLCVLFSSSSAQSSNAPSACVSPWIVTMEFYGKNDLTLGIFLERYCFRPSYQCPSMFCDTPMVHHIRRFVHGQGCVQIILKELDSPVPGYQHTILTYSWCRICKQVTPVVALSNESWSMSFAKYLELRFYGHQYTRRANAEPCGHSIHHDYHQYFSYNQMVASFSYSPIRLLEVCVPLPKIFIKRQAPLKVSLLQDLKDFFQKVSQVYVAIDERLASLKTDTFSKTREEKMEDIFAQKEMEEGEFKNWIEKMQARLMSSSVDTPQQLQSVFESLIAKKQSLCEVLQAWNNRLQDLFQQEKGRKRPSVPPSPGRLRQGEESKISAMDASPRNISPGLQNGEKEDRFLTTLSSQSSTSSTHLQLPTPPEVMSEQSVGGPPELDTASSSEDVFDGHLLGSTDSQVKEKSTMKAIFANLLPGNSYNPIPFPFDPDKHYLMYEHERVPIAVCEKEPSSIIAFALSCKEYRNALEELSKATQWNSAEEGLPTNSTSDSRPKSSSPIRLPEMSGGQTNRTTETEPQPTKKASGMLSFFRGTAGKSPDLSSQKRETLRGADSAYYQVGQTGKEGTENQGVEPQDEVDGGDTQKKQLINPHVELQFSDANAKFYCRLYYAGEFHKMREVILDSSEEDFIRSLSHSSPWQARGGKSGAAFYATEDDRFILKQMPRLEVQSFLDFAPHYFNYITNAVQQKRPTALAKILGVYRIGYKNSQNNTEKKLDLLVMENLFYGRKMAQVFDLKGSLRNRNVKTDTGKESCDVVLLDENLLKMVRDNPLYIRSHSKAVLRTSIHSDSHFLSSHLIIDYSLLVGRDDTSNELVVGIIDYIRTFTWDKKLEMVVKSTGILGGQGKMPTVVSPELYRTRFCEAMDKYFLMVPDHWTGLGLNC

As for `CCCCCCCCCCCCCCCC(=O)NCCOP(=O)(O)OC[C@H]1O[C@@H](OC)[C@H](OP(=O)(O)O)[C@H]2OC(C)(C)O[C@H]21` [compound 6], the IC50 at hPIKfyve (human PIKfyve) was 6.2 µM; in data set [2], around 15 µM. The molecule further had an inhibition at 20 µM in data set [1] of 50%.

B1: zPIP5Kα (zebrafish PIP5Kα) (Danio rerio) (protein)
chain: MAAPAVVSTDGADSSTPGNRKMASSEGLSTLGSSQTNKKTLGHRGIDPTGETTYKKTTSSALKGAIQLGITHSVGSLSQKPERDVLMQDFEVVESIFFPSQGSSSTPGHHHGDFKFKTYAPIAFRYFREMFGIRPDDYLYSLCNEPLIELSNPGASGSLFYVSSDDEFIIKTVQHKEAEFLQTLLPGYFMNLNQNMRTLLPKFYGLYCVQADGKNIRIVVMNNLLPRAVPMHLKFDLKGSTYKRRASPKERSKGVPTYKDLDFMQDMPEGILLENDHYTALSRTMQRDCRVLQSFKIMDYSLLVGIHILHRAGEEASTAVPDTQKKGQGQKPLYCTAIESIQGESKSKTSPQPYESMGGIPAFNSKGERLLVFIGIIDILQSYRLVKKLEHSWKALLHDGDTVSVHRPSFYADRFQKFMCSTVFRKSQLKTSPSKRSRLGPVSAGKKSNIAVSGQSHQQSLPVAAELTQSQLWSSEDPQGDSGMQTARPDLLPQQVAEDDITSSSADTTLSATSLVNSRLSTNTPVLSRSSVAGHSSEESLDMDVISLSEIVPQTSTSE
notes: zebrafish PIP5Kα with a C-terminal His-tag
As to B1, in “purified protein”, the Michaelis constant (Km) was 10 ± 1.3 µM.
